Legend:
Mus musculus [1] = assay: Induction of catalepsy in albino mouse at 15 mg/kg, ip relative to control; format: organism-based; parameters: dose 15 mg/kg, route intraperitoneal; conditions: in vivo
Mus musculus [2] = assay: Antiserotogenic activity in albino mouse assessed as inhibition of 5HTP-induced head twitches at 15 mg/kg, ip measured for 5 mins at every 5 mins interval for 1 hr relative to control; format: functional; conditions: route intraperitoneal
Mus musculus [3] = assay: Antipsychotic activity in albino mouse assessed as inhibition of apomorphine-induced climbing behaviour at 15 mg/kg, ip measured after 10 mins at 5 mins interval for 30 mins relative to control; format: functional; conditions: route intraperitoneal

| SMILES | Activity (Mus musculus [1]) | inhibition in vivo at 15 mg/kg (Mus musculus [2]) | inhibition in vivo at 15 mg/kg (Mus musculus [3]) |
| --- | --- | --- | --- |
| COc1ccccc1N1CCN(CC(=O)c2ccc(-c3ccccc3)cc2)CC1 | 29.43% | 61.3% | 53.4% |
| O=C(CN1CCN(c2cccc(C(F)(F)F)c2)CC1)c1ccc(-c2ccccc2)cc1 | 31.84% | 32.6% | 26.4% |
| Cc1cccc(N2CCN(CC(=O)c3ccc(-c4ccccc4)cc3)CC2)c1 | 33.82% | 29.6% | 33.6% |
| O=C(CN1CCN(c2ccc(Cl)c(Cl)c2)CC1)c1ccc(-c2ccccc2)cc1 | 30.5% | 38.8% | 25.7% |
| O=C(CN1CCN(c2ccccc2Cl)CC1)c1ccc(-c2ccccc2)cc1 | 42.31% | 35.2% | 38.2% |
| Cc1cccc(N2CCN(CC(=O)c3ccc(-c4ccccc4)cc3)CC2)c1C | 29.87% | 35.4% | 40.7% |
| O=C(CN1CCN(c2cccc(Cl)c2)CC1)c1ccc(-c2ccccc2)cc1 | 31.84% | 32.6% | 29.9% |
| COc1ccc(N2CCN(CC(=O)c3ccc(-c4ccccc4)cc3)CC2)cc1 | 59.28% | 36.1% | 32.9% |
| O=C(CN1CCN(c2cccc(Cl)c2Cl)CC1)c1ccc(-c2ccccc2)cc1 | 28.97% | 38.3% | 42.8% |
| O=C(CN1CCN(c2ccc(F)cc2)CC1)c1ccc(-c2ccccc2)cc1 | 30.48% | 24.5% | 23.4% |
| O=C(CN1CCN(c2ccc(Cl)cc2)CC1)c1ccc(-c2ccccc2)cc1 | 35.17% | 29.2% | 26.4% |
| O=C1CCc2ccc(OCCCCN3CCN(c4cccc(Cl)c4Cl)CC3)cc2N1 [ARIPIPRAZOLE] | 26.86% | 94.5% | 61.1% |
| Cc1ccc(N2CCN(CC(=O)c3ccc(-c4ccccc4)cc3)CC2)cc1 | 38.66% | 29.8% | 33.3% |
| O=C(CN1CCN(c2ccccc2)CC1)c1ccc(-c2ccccc2)cc1 | 34.53% | 28% | 31.9% |
| Cc1ccccc1N1CCN(CC(=O)c2ccc(-c3ccccc3)cc2)CC1 | 35.84% | 26.7% | 38.5% |

— ChEMBL document CHEMBL3120139, “Design, synthesis, pharmacological evaluation and computational studies of 1-(biphenyl-4-yl)-2-[4-(substituted phenyl)-piperazin-1-yl]ethanones as potential antipsychotics” (Eur J Med Chem, 2014)
